Assay results taken from article PMC5829257, “Structure, computational and biochemical analysis of PcCel45A endoglucanase from Phanerochaete chrysosporium and catalytic mechanisms of GH45 subfamily C members” (Scientific Reports, 2018).

Biological target: T1, PcCel45A (Phanerodontia chrysosporium, UniProt B3Y002)
T1 construct: gene egv; mature single catalytic domain; pEXPYR+ vector, secreted from Aspergillus nidulans A773 (Results text says A. niger)
Test: X-ray crystallography of the complex
Type: binding
Settings: bound at +1 and +2 subsites of the active-site groove; crystals in ammonium sulfate, Hepes pH 7.5, MPD

T1 sequence (B3Y002 entry or part of it): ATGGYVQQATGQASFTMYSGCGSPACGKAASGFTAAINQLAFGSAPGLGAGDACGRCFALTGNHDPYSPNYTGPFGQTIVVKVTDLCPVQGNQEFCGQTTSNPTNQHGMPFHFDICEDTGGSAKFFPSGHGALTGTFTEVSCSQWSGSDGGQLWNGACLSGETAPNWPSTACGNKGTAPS

## OC[C@H]1O[C@@H](O[C@H]2[C@H](O)[C@@H](O)C(O)O[C@@H]2CO)[C@H](O)[C@@H](O)[C@@H]1O (stereo partly shown) [cellobiose]
  X-ray crystallography of the complex: The structure of the PcCel45A-cellobiose complex revealed a single cellobiose molecule within the active-site groove
